Assay results as given in patent US12049450B2, “Pyridyloxy-carboxylate derivative and preparation method therefor, herbicidal composition, and use” (Qingdao Kingagroot Chemical Compound Co., Ltd., priority 2018, dated 2024).

What was measured:
Test in all cases: Post-emergence test experiment (greenhouse pot, spray at 2-3 leaf stage)
Type in all cases: in vivo
Settings in all cases: 1000 g/ha; post-emergence spray at 2-3 leaf stage; assessed after 3 weeks; fresh weight inhibition rate
[1] = test system: Galium spurium
In short: (§1)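 Activity graded levels 0-5 by fresh-weight inhibition (level 5 above 85%, level 0 below 5%), assessed 3 weeks after treatment. Plants grown in greenhouse pots were sprayed post-emergence at 2-3 leaves using acetone/tween-80 solutions with methyl oleate synergist (1.5 L/ha).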

[2] = test system: Monochoria vaginalis
In short: as §1

[3] = test system: Abutilon theophrasti
In short: as §1

[4] = test system: Digitaria sanguinalis
In short: as §1

[5] = test system: Echinochloa crusgalli
In short: as §1

Row | SMILES | Activity level (growth inhibition rate) Galium spurium [1] | Activity level (growth inhibition rate) Monochoria Vaginalis [2] | Activity level (growth inhibition rate) Abutilon theophrasti [3] | Activity level (growth inhibition rate) Digitaria sanguinalis [4] | Activity level (growth inhibition rate) Echinochloa crusgalli [5]
1 | CNc1c(Cl)c(F)nc(OC(C)C(=O)OCc2ccccc2)c1Cl (stereo not shown) [Compound 190] | 5 (Level 5: the growth inhibition rate is greater than 85%) | 5 (Level 5: the growth inhibition rate is greater than 85%) | 5 (Level 5: the growth inhibition rate is greater than 85%) | 5 (Level 5: the growth inhibition rate is greater than 85%) | 5 (Level 5: the growth inhibition rate is greater than 85%)
2 | CCNc1c(Cl)c(F)nc(OC(C)C(=O)SCc2ccccc2)c1Cl (stereo not shown) [Compound 191] | 5 (Level 5: the growth inhibition rate is greater than 85%) | 5 (Level 5: the growth inhibition rate is greater than 85%) | 5 (Level 5: the growth inhibition rate is greater than 85%) | 5 (Level 5: the growth inhibition rate is greater than 85%) | 5 (Level 5: the growth inhibition rate is greater than 85%)
3 | CC(=O)Nc1c(Cl)c(F)nc(OC(C)C(=O)OCc2ccccc2)c1Cl (stereo not shown) [Compound 192] | 5 (Level 5: the growth inhibition rate is greater than 85%) | 5 (Level 5: the growth inhibition rate is greater than 85%) | 5 (Level 5: the growth inhibition rate is greater than 85%) | 5 (Level 5: the growth inhibition rate is greater than 85%) | 5 (Level 5: the growth inhibition rate is greater than 85%)
4 | CC(Oc1nc(F)c(Cl)c(NC(=O)c2ccccc2)c1Cl)C(=O)OCc1ccccc1 (stereo not shown) [Compound 194] | 5 (Level 5: the growth inhibition rate is greater than 85%) | 5 (Level 5: the growth inhibition rate is greater than 85%) | 5 (Level 5: the growth inhibition rate is greater than 85%) | 5 (Level 5: the growth inhibition rate is greater than 85%) | 5 (Level 5: the growth inhibition rate is greater than 85%)
5 | CC(Oc1nc(F)c(Cl)c(NCc2ccccc2)c1Cl)C(=O)OCc1ccccc1 (stereo not shown) [Compound 195] | 5 (Level 5: the growth inhibition rate is greater than 85%) | 5 (Level 5: the growth inhibition rate is greater than 85%) | 5 (Level 5: the growth inhibition rate is greater than 85%) | 5 (Level 5: the growth inhibition rate is greater than 85%) | 5 (Level 5: the growth inhibition rate is greater than 85%)
6 | Cc1cccc(COC(=O)C(C)Oc2nc(F)c(Cl)c(N)c2Cl)c1 (stereo not shown) [Compound 196] | 5 (Level 5: the growth inhibition rate is greater than 85%) | 5 (Level 5: the growth inhibition rate is greater than 85%) | 5 (Level 5: the growth inhibition rate is greater than 85%) | 5 (Level 5: the growth inhibition rate is greater than 85%) | 5 (Level 5: the growth inhibition rate is greater than 85%)
7 | Cc1ccc(COC(=O)C(C)Oc2nc(F)c(Cl)c(N)c2Cl)cc1 (stereo not shown) [Compound 197] | 5 (Level 5: the growth inhibition rate is greater than 85%) | 5 (Level 5: the growth inhibition rate is greater than 85%) | 5 (Level 5: the growth inhibition rate is greater than 85%) | 5 (Level 5: the growth inhibition rate is greater than 85%) | 5 (Level 5: the growth inhibition rate is greater than 85%)
8 | CC(Oc1nc(F)c(Cl)c(N)c1Cl)C(=O)OCc1cccc(F)c1 (stereo not shown) [Compound 198] | 5 (Level 5: the growth inhibition rate is greater than 85%) | 5 (Level 5: the growth inhibition rate is greater than 85%) | 5 (Level 5: the growth inhibition rate is greater than 85%) | 5 (Level 5: the growth inhibition rate is greater than 85%) | 5 (Level 5: the growth inhibition rate is greater than 85%)
9 | CC(Oc1nc(F)c(Cl)c(N)c1Cl)C(=O)OCc1ccc(F)cc1 (stereo not shown) [Compound 199] | 5 (Level 5: the growth inhibition rate is greater than 85%) | 5 (Level 5: the growth inhibition rate is greater than 85%) | 5 (Level 5: the growth inhibition rate is greater than 85%) | 5 (Level 5: the growth inhibition rate is greater than 85%) | 5 (Level 5: the growth inhibition rate is greater than 85%)
10 | CC(Oc1nc(F)c(Cl)c(N)c1Cl)C(=O)OCc1ccccc1C#N (stereo not shown) [Compound 200] | 5 (Level 5: the growth inhibition rate is greater than 85%) | 5 (Level 5: the growth inhibition rate is greater than 85%) | 5 (Level 5: the growth inhibition rate is greater than 85%) | 5 (Level 5: the growth inhibition rate is greater than 85%) | 5 (Level 5: the growth inhibition rate is greater than 85%)
11 | CC(Oc1nc(F)c(Cl)c(N)c1Cl)C(=O)OCc1cccc(C#N)c1 (stereo not shown) [Compound 201] | 5 (Level 5: the growth inhibition rate is greater than 85%) | 5 (Level 5: the growth inhibition rate is greater than 85%) | 5 (Level 5: the growth inhibition rate is greater than 85%) | 5 (Level 5: the growth inhibition rate is greater than 85%) | 5 (Level 5: the growth inhibition rate is greater than 85%)
12 | CC(Oc1nc(F)c(Cl)c(N)c1Cl)C(=O)OCc1ccccc1Cl (stereo not shown) [Compound 202] | 5 (Level 5: the growth inhibition rate is greater than 85%) | 5 (Level 5: the growth inhibition rate is greater than 85%) | 5 (Level 5: the growth inhibition rate is greater than 85%) | 5 (Level 5: the growth inhibition rate is greater than 85%) | 5 (Level 5: the growth inhibition rate is greater than 85%)
13 | CC(Oc1nc(F)c(Cl)c(N)c1Cl)C(=O)OCc1cccc(Cl)c1 (stereo not shown) [Compound 203] | 5 (Level 5: the growth inhibition rate is greater than 85%) | 5 (Level 5: the growth inhibition rate is greater than 85%) | 5 (Level 5: the growth inhibition rate is greater than 85%) | 5 (Level 5: the growth inhibition rate is greater than 85%) | 5 (Level 5: the growth inhibition rate is greater than 85%)
14 | CC(Oc1nc(F)c(Cl)c(N)c1Cl)C(=O)OCc1ccc(Cl)cc1 (stereo not shown) [Compound 204] | 5 (Level 5: the growth inhibition rate is greater than 85%) | 5 (Level 5: the growth inhibition rate is greater than 85%) | 5 (Level 5: the growth inhibition rate is greater than 85%) | 5 (Level 5: the growth inhibition rate is greater than 85%) | 5 (Level 5: the growth inhibition rate is greater than 85%)
15 | CC(Oc1nc(F)c(Cl)c(N)c1Cl)C(=O)OCc1ccccc1Br (stereo not shown) [Compound 205] | 5 (Level 5: the growth inhibition rate is greater than 85%) | 5 (Level 5: the growth inhibition rate is greater than 85%) | 5 (Level 5: the growth inhibition rate is greater than 85%) | 5 (Level 5: the growth inhibition rate is greater than 85%) | 5 (Level 5: the growth inhibition rate is greater than 85%)
16 | CC(Oc1nc(F)c(Cl)c(N)c1Cl)C(=O)OCc1cccc(Br)c1 (stereo not shown) [Compound 206] | 5 (Level 5: the growth inhibition rate is greater than 85%) | 5 (Level 5: the growth inhibition rate is greater than 85%) | 5 (Level 5: the growth inhibition rate is greater than 85%) | 5 (Level 5: the growth inhibition rate is greater than 85%) | 5 (Level 5: the growth inhibition rate is greater than 85%)
17 | CC(Oc1nc(F)c(Cl)c(N)c1Cl)C(=O)OCc1ccc(Br)cc1 (stereo not shown) [Compound 207] | 5 (Level 5: the growth inhibition rate is greater than 85%) | 5 (Level 5: the growth inhibition rate is greater than 85%) | 5 (Level 5: the growth inhibition rate is greater than 85%) | 5 (Level 5: the growth inhibition rate is greater than 85%) | 5 (Level 5: the growth inhibition rate is greater than 85%)
